Results taken from patent publication US7687500B2, “Substituted oxetanes, method of making, and method of use thereof” (The University of Connecticut, priority 2004, dated 2010).

Key:
HIV = conditions: in vitro; cited from earlier work

SMILES	melting point	anti-HIV activity (HIV)
OCC1(n2nc3ccccc3n2)OCC1c1ccccc1 (stereo not drawn) [Example 1, 2-(Benzotriazol-2-yl)-2-(hydroxymethyl)-3-phenyloxetane]	119 to 123 °C	
Nc1ncnc2c1ncn2[C@@H]1O[C@H](CO)[C@H]1CO [oxetanocin]		potent anti-HIV activity in vitro
OCC1(n2nccn2)OCC1c1ccccc1 (stereo not drawn) [Example 2, 2-Hydroxymethyl-3-phenyl-2-(1,2,3-triazol-2-yl)oxetane]	77 to 78.3 °C	
